The nature of series [1]: Tolerability, body weight and hepatic functions in Beagle dogs, 7 day repeat oral administration. The format is in vivo. The following applies: Beagle dog, 20 mg/kg PO BID for 7 days. As to the method: FIG. 1 is daily body weights of Beagle dogs during the study of example 23, 20 mg/kg PO BID dose.
FIG. 2 is daily hepatic enzyme levels of Beagle dogs during the study: ALT (alanine aminotransferase), AST (aspartate aminotransferase), ALP (alkaline phosphatase) and T-Bil (total bilirubin) for example 23, 20 mg/kg PO BID dose.
(§1) To understand its toxicokinetics and potential effect on hepatic functions, EXAMPLE 23 was orally dosed to Beagle dogs for 7 consecutive days.

The nature of series [2]: Toxicokinetics in Beagle dogs, 7 day repeat oral administration. The following applies: 20 mg/kg PO BID; for Therapeutic Index AUC (0-12 hr): versus predicted human efficacious AUC 0.376 μg * hr/mL; for Therapeutic Index Cmax: versus predicted human efficacious Cmax 0.078 μg/mL; for Cmax / AUC(0-t): Beagle, dog, po, 20 mg/kg; for Cmax / AUC(0-t) / Tmax: plasma; for AUC(0-t): Subject 1, read-out: AUC (0-12 hr). The format is in vivo.
Excerpt: as §1

The target in series [3] is indoleamine 2, 3-dioxygenase (IDO1) (Homo sapiens, UniProt P14902). As to the kind of experiment: IDO1 PBMC RapidFire MS assay (kynurenine detection by mass spectrometry). The settings on record: human PBMC stimulated with IFN-γ and LPS, 2 days, pIC50, read-out: PBMC PXC50 (converted). The format is cell-based. More on the design: to induce the expression of indoleamine 2, 3-dioxygenase (IDO1); host or cells: human PBMC stimulated with IFN-gamma and LPS. The procedure, abridged:
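Kynurenine output, read by RapidFire mass spectrometry as ratio to an internal standard, was measured after 2-day compound exposure (11-point, 3-fold dilutions) of human PBMCs induced with 100 ng/ml IFN-γ and 50 ng/ml LPS. Cell viability tracked alongside via ATP luminescence; XC50 from curve fitting.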

Series [4] concerns the target T1, ePL tagged IDO1 (Homo sapiens, UniProt P14902).
T1 construct: expressed in transfected cells; host or cells: HeLa cells transduced with BacMam virus
In words: CETSA (Cellular Thermal Shifting assay) in Hela cells. The settings on record: BacMam ePL tagged IDO1, 3 hours at 37° C., heated at 53° C. for 3 min. The format is binding. The method, then:
Cellular Thermal Shifting assays were used to directly monitor the ligand binding to target proteins in cells. Hela cells were transduced with BacMam virus expressing ePL tagged IDO1 overnight. The cells were then plated over the compounds for 3 hours at 37° C. in cell culture medium containing 1% FBS. The plates were then sealed and heated at 53° C. for 3 min. InCell Hunter reagents were added and luminescence was read in 90 min.

Series [5] has as its system human peripheral blood mononuclear cells (PBMC). In words: PBMC cytotoxicity assay (CellTiter-Glo). The format is cell-based. The settings on record: 2 days, pCC50. The procedure, abridged: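 % cytotoxicity was taken from CellTiter-Glo luminescence, using wells without cells and stimulated DMSO wells as references, and fitted by four-parameter curve to give XC50. Cells were human PBMC at 50,000 per well, activated with 100 ng/ml IFN-γ plus 50 ng/ml LPS. Incubation with 11-point, 3-fold dilution series ran for 2 days at 37 °C.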
A general note: ATP-based viability assays read luminescence as a measure of living cells.

Where two headings read alike, the source gives them in different places.

T1 sequence (P14902 whole entry): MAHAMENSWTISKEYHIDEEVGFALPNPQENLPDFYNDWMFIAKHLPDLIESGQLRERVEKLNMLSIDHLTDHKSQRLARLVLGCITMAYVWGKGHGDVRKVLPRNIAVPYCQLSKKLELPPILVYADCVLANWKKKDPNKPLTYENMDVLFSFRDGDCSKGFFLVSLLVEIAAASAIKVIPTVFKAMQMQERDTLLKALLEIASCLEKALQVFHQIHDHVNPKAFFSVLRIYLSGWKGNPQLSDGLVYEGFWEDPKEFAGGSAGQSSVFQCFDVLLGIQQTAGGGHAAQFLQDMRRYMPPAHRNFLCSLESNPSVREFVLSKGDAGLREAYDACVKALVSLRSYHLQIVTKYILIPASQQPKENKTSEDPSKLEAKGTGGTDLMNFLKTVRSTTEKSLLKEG
Chain of indoleamine 2, 3-dioxygenase (IDO1) (P14902 whole entry): as above

For `CC(C)CN(c1ccc([C@H](C)CC(=O)O)cc1Nc1nnc(C2CC2)s1)C1CCOCC1` [Example 23, (R)-3-(3-((5-cyclopropyl-1,3,4-thiadiazol-2-yl)amino)-4-(isobutyl (tetrahydro-2H-pyran-4-yl)amino)phenyl)butanoic Acid], the Clinical observations result in series [1] is given as “no clinical observations were made”. Besides, the “Tolerability throughout the study” value in series [1] is recorded as “well tolerated”. In series [1] (FIG. 2), the “Hepatic functions measured by serum ALT, AST, ALP and T-Bil levels” value is listed as “in the normal variable ranges”. For the same compound, the Body weights result in series [1] (male and female, FIG. 1) was “constant”. In addition, the “Therapeutic Index AUC (0-12 hr)” value is 4 in series [2] (Beagle dog, Day1, Female); 14 in series [2] (Beagle dog, Day1, Male); 10 in series [2] (Beagle dog, Day7, Female); 40 in series [2] (Beagle dog, Day7, Male). The “Therapeutic Index Cmax” value in series [2] (Beagle dog, Day1, Female) was 13; in series [2] (Beagle dog, Day1, Male), 31; in series [2] (Beagle dog, Day7, Female), 50; in series [2] (Beagle dog, Day7, Male), 81. Further, the “Therapeutic coverage in AUC0-12 for the predicted human efficacious dose” value in series [2] (Beagle dog, Day 7, average) is approximately 25 fold. The “Therapeutic coverage in Cmax for the predicted human efficacious dose” value in series [2] (Beagle dog, Day 7, average) was approximately 66 fold. Also, in series [2] (Beagle dog, Days 1 and 7), the “Time quantifiable in plasma post the start of the oral dose” value is “up to 24 hours”. The “Increase in systemic exposures (Cmax and AUC0-12 values) on Day 7 in comparison to Day 1” value in series [2] (Beagle dog, both dogs) is given as approximately 3 fold. Also, the Cmax in series [2] (female, Day1, Female, Subject 1) was determined as 1000 ng/mL; in series [2] (female, Day7, Female, Subject 1), 3900 ng/mL; in series [2] (male, Day1, Male, Subject 1), 2400 ng/mL; in series [2] (male, Day7, Male, Subject 1), 6300 ng/mL. Also, the AUC(0-t) in series [2] (female, Day1, Female) was determined as 1500 ng·h/mL; in series [2] (female, Day7, Female), 3800 ng·h/mL; in series [2] (male, Day1, Male), 5100 ng·h/mL; in series [2] (male, Day7, Male), 14900 ng·h/mL. Moreover, the time to peak (Tmax) in series [2] (Beagle dog, Day1, Male, Subject 1) stood at 30 min; in series [2] (Beagle dog, Day7, Female, Subject 1) it was 30 min; in series [2] (Beagle dog, post dose on Days 1 and 7), 30 min. Further, in series [3], the IC50 is 3.16 nM. Moreover, the EC50 in series [4] (read-out: pXC50_1 (converted)) is 331 nM; in series [4] (read-out: pXC50_2 (converted)), 234 nM. In addition, in series [5], the “PBMC TOX PXC50” value was less than 5.

`CC(C)CN(c1ccc([C@H](C)CC(=O)O)cc1Nc1nc(C(F)(F)F)ns1)C1CCOCC1` [Example 20, (R)-3-(4-(Isobutyl(tetrahydro-2H-pyran-4-yl)amino)-3-((3-(trifluoromethyl)-1,2,4-thiadiazol-5-yl)amino)phenyl)butanoic Acid]: the IC50 in series [3] was 2.51 nM. The EC50 in series [4] (read-out: pXC50_1 (converted)) was 9.55 nM. Further, the “PBMC TOX PXC50” value in series [5] is less than 5.

Broadly, the Cmax is the highest concentration seen after dosing. Usually Tmax stands for the time at which the peak concentration occurs.

Source of the values: patent publication US10899754B2, “Modulators of indoleamine 2,3-dioxygenase” (GLAXOSMITHKLINE INTELLECTUAL PROPERTY DEVELOPMENT LIMITED, priority 2016, dated 2021).
